Test results from US10882871B2, “18/19F-labelled compounds which target the prostate specific membrane antigen” (BRITISH COLUMBIA CANCER AGENCY BRANCH, priority 2016, dated 2021).
Values joined by “and” are separate entries in the source; they are usually repeats but may differ in a detail not shown here. Identical values can stand only once.

Test system: tumors derived from LNCaP cells
Assay: PET/CT imaging and biodistribution of F-18 labeled HTK-01069 and HTK-01070 in tumor-bearing mice
Assay type: in vivo, mouse (NODSCID 1L2RγKO male mice)
Method: LNCap cell line used in the tumor model was obtained commercially from ATTC (LNCaP clone FGC, CRL-1740). It was established from a metastatic site of left supraclavicular lymph node of human prostatic adenocarcinoma. Cells were cultured in PRMI 1640 (StemCell Technologies, Vancouver, BC) supplemented by 10% FBS, 100 U/mL penicillin and 100 μg/mL streptomycin at 37° C. in a humidified incubator containing 5% CO2. Cells grown to 80-90% confluence were then washed with sterile phosphate-buffered saline (1×PBS pH 7.4) and trypsinization. The collected cells number was counted with Hemacytometer (Hausser Scientific).
Tumor implantation: Imaging and biodistribution experiments were performed using NODSCID 1L2RγKO male mice. Three or four mice in each cage equipped with enrichments. The mice were maintained and the experiments were conducted in according to the guidelines established by Canadian Council on Animal Care and approved by Animal Ethics Committee of the University of British Columbia. Mice were housed under pathogen-free conditions and kept on twelve hours light and twelve hours dark cycle in the Animal Research Centre, British Columbia Cancer Research Centre, Vancouver, Canada.
Mice were anesthetized by inhalation with 2.5% isoflurane in 2.0 L/min of oxygen during cells implantation. Mice were implanted subcutaneously with 1×10^7 LNCaP cells behind left shoulder. Mice were imaged or used in biodistribution studies when the tumor grew up to reach 5-8 mm in diameter during 5-6 weeks.
PET/CT Imaging: PET imaging experiments were conducted using Siemens inveon micro PET/CT scanner. Each tumor bearing mouse was injected ˜6.44 MBq of F-18 labeled HTK-01069 and ˜7.08 MBq of F-18 labeled HTK-01070 through the tail vein under anesthesia. After one hour, the mice were sedated again with 2% isoflurane inhalation and positioned in the scanner. Static PET imaging was performed to determined activity uptake of tumor and other organs. A CT scan was obtained for localization and attenuation correction after segmentation for reconstructing the PET images. The data was acquired by scanning the mice for 10 minutes each. The mice were kept warm by a heating pad during acquisition. The mice were euthanized after imaging and followed by biodistribution. Please see FIGS. 2 and 3 of this specification for reconstructed PET images for 1L2RγKO mice injected with HTK-01069 and HTK-01070 respectively.
Blood was withdrawn immediately, and the organs of interest were quickly removed. Each organ was weighed and the tissue radioactivity was measured with a Cobra II gamma counter (Packard), normalized to the injected dose using a standard curve and expressed as the percentage of the injected dose per gram of tissue (% ID/g). Biodistribution data are shown for HTK-01069 in Tables 5, 6 and 7 and HTK-01070 in Tables 8, 9, 10 of the specification respectively.

[1] = 1 h p.i. with co-injection of 0.5 mg DCFPyL, Avg
[2] = 1 h p.i. with co-injection of 0.5 mg DCFPyL, single mice

## C[N+](C)(Cc1ccc(C(=O)NCCCC[C@H](NC(=O)N[C@@H](CCC(=O)O)C(=O)O)C(=O)O)cc1)C[B-](F)(F)[18F] [F-18 HTK-01069]
[1]
  Biodistribution Adrenals: 0.35 % ID/g
  Biodistribution Blood: 0.45 % ID/g
  Biodistribution Bone: 0.13 % ID/g
  Biodistribution Brain: 0.03 % ID/g
  Biodistribution Fat: 0.11 % ID/g
  Biodistribution Heart: 0.25 % ID/g
  Biodistribution Intestine: 0.57 % ID/g
  Biodistribution Kidney: 3.54 % ID/g
  Biodistribution Liver: 0.11 % ID/g
  Biodistribution Lung: 0.15 % ID/g
  Biodistribution Muscle: 0.30 % ID/g
  Biodistribution Pancreas: 3.00 % ID/g
  Biodistribution Seminal: 0.38 % ID/g
  Biodistribution Spleen: 0.11 % ID/g
  Biodistribution Stomach: 0.13 % ID/g
  Biodistribution Tail: 0.44 % ID/g
  Biodistribution Testes: 0.10 % ID/g
  Biodistribution Tumour: 0.33 % ID/g
[2]
  Biodistribution Bone: 0.15 % ID/g and 0.17 % ID/g and 0.11 % ID/g and 0.10 % ID/g
  Biodistribution Brain: 0.02 % ID/g and 0.03 % ID/g and 0.04 % ID/g
  Biodistribution Heart: 0.17 % ID/g and 0.31 % ID/g and 0.27 % ID/g and 0.26 % ID/g
  Biodistribution Kidney: 2.35 % ID/g and 3.57 % ID/g and 4.08 % ID/g and 4.15 % ID/g
  Biodistribution Lung: 0.10 % ID/g and 0.20 % ID/g and 0.16 % ID/g and 0.13 % ID/g
  Biodistribution Muscle: 0.22 % ID/g and 0.36 % ID/g and 0.37 % ID/g and 0.26 % ID/g
  Biodistribution Pancreas: 2.40 % ID/g and 3.36 % ID/g and 2.71 % ID/g and 3.53 % ID/g
  Biodistribution Stomach: 0.08 % ID/g and 0.13 % ID/g and 0.15 % ID/g
  Biodistribution Tail: 0.43 % ID/g and 0.41 % ID/g and 0.37 % ID/g and 0.55 % ID/g
  Biodistribution Testes: 0.07 % ID/g and 0.13 % ID/g and 0.12 % ID/g and 0.09 % ID/g
  Biodistribution Tumour: 0.30 % ID/g and 0.35 % ID/g and 0.26 % ID/g and 0.42 % ID/g
1 h p.i., Avg
  Biodistribution Adrenals: 3.98 % ID/g
  Biodistribution Blood: 0.52 % ID/g
  Biodistribution Bone: 0.27 % ID/g
  Biodistribution Brain: 0.03 % ID/g
  Biodistribution Fat: 1.09 % ID/g
  Biodistribution Heart: 1.16 % ID/g
  Biodistribution Intestine: 0.55 % ID/g
  Biodistribution Kidney: 92.90 % ID/g
  Biodistribution Liver: 0.14 % ID/g
  Biodistribution Lung: 0.26 % ID/g
  Biodistribution Muscle: 0.36 % ID/g
  Biodistribution Pancreas: 2.77 % ID/g
  Biodistribution Seminal: 2.82 % ID/g
  Biodistribution Spleen: 0.48 % ID/g
  Biodistribution Stomach: 2.99 % ID/g
  Biodistribution Tail: 0.62 % ID/g
  Biodistribution Testes: 0.53 % ID/g
  Biodistribution Tumour: 5.58 % ID/g
1 h p.i., single mice
  Biodistribution Brain: 0.03 % ID/g
  Biodistribution Fat: 0.95 % ID/g and 1.21 % ID/g and 0.74 % ID/g and 1.46 % ID/g
  Biodistribution Intestine: 0.43 % ID/g and 0.59 % ID/g and 0.54 % ID/g and 0.64 % ID/g
  Biodistribution Lung: 0.21 % ID/g and 0.28 % ID/g and 0.22 % ID/g and 0.32 % ID/g
  Biodistribution Muscle: 0.36 % ID/g and 0.39 % ID/g and 0.34 % ID/g and 0.35 % ID/g
  Biodistribution Pancreas: 2.32 % ID/g and 2.86 % ID/g and 2.76 % ID/g and 3.17 % ID/g
  Biodistribution Tail: 0.70 % ID/g and 0.47 % ID/g and 0.57 % ID/g and 0.74 % ID/g
  Biodistribution Testes: 0.44 % ID/g and 0.58 % ID/g and 0.51 % ID/g and 0.60 % ID/g
  Biodistribution Tumour: 7.84 % ID/g and 4.16 % ID/g and 4.47 % ID/g and 5.86 % ID/g
2 h p.i., Avg
  Biodistribution Adrenals: 2.01 % ID/g
  Biodistribution Blood: 0.16 % ID/g
  Biodistribution Bone: 0.12 % ID/g
  Biodistribution Brain: 0.03 % ID/g
  Biodistribution Fat: 0.43 % ID/g
  Biodistribution Heart: 0.72 % ID/g
  Biodistribution Intestine: 0.75 % ID/g
  Biodistribution Kidney: 51.79 % ID/g
  Biodistribution Liver: 0.06 % ID/g
  Biodistribution Lung: 0.12 % ID/g
  Biodistribution Muscle: 0.24 % ID/g
  Biodistribution Pancreas: 2.24 % ID/g
  Biodistribution Seminal: 3.24 % ID/g
  Biodistribution Spleen: 0.26 % ID/g
  Biodistribution Stomach: 2.25 % ID/g
  Biodistribution Tail: 0.31 % ID/g
  Biodistribution Testes: 0.39 % ID/g
  Biodistribution Tumour: 5.36 % ID/g
2 h p.i., single mice
  Biodistribution Bone: 0.12 % ID/g and 0.08 % ID/g and 0.14 % ID/g and 0.13 % ID/g
  Biodistribution Brain: 0.04 % ID/g and 0.02 % ID/g and 0.03 % ID/g
  Biodistribution Heart: 0.63 % ID/g and 0.61 % ID/g and 0.79 % ID/g and 0.84 % ID/g
  Biodistribution Intestine: 0.78 % ID/g and 0.92 % ID/g and 0.63 % ID/g and 0.68 % ID/g
  Biodistribution Kidney: 62.04 % ID/g and 35.60 % ID/g and 49.89 % ID/g and 59.65 % ID/g
  Biodistribution Lung: 0.16 % ID/g and 0.09 % ID/g and 0.11 % ID/g and 0.14 % ID/g
  Biodistribution Muscle: 0.29 % ID/g and 0.18 % ID/g and 0.22 % ID/g and 0.28 % ID/g
  Biodistribution Pancreas: 2.39 % ID/g and 1.89 % ID/g and 2.21 % ID/g and 2.48 % ID/g
  Biodistribution Spleen: 0.31 % ID/g and 0.18 % ID/g and 0.21 % ID/g and 0.33 % ID/g
  Biodistribution Tail: 0.29 % ID/g and 0.24 % ID/g and 0.36 % ID/g and 0.34 % ID/g
  Biodistribution Testes: 0.41 % ID/g and 0.37 % ID/g and 0.39 % ID/g
  Biodistribution Tumour: 5.03 % ID/g and 4.25 % ID/g and 5.74 % ID/g and 6.41 % ID/g
